# How the values were obtained:
# [1] = test system: persian speedwell; assay: Test Example 4: herbicidal effect by soil treatment (Table 19, symbol R); type: in vivo, Persian speedwell (Veronica persica); conditions: amount of applied herbicide 320 g/ha
# Method in brief: (§1)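 Seeds were sown in sterilized diluvial soil and covered with about 1.5 cm of soil. An emulsion formulation diluted with water to a predetermined herbicide amount was sprayed evenly onto the soil surface. Plants grew in a greenhouse at 25° C. to 30° C., and the effect was scored three weeks after application using criteria from an earlier test.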
# [2] = test system: southern crabgrass; assay: Test Example 5: herbicidal effect by foliage application, plastic box (Table 20, symbol F); type: in vivo, southern crabgrass (Digitaria ciliaris); conditions: foliage application, AAH 320 g/ha, evaluated three weeks after application
# Method in brief: (§2)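 Plants sown in sterilized diluvial soil and grown 14 days in a greenhouse at 25° C to 30° C, then sprayed on the foliage with the compound's emulsion diluted in water to a predetermined herbicide amount. Injury to weeds and crops scored three weeks after application on a visual rating scale.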
# [3] = test system: redroot pigweed; assay: Test Example 5: herbicidal effect by foliage application, plastic box (Table 20, symbol N); type: in vivo, redroot pigweed (Amaranthus retroflexus); conditions: foliage application, AAH 320 g/ha, evaluated three weeks after application
# Method in brief: as §2
# [4] = test system: lambsquarters; assay: Test Example 4: herbicidal effect by soil treatment (Table 19, symbol O); type: in vivo, lambsquarters (Chenopodium album); conditions: amount of applied herbicide 320 g/ha
# Method in brief: as §1
# [5] = test system: barnyard grass; assay: Test Example 3: herbicidal effect by foliage application, Wagner pot (Table 18, symbol H); type: in vivo, barnyard grass (Echinochloa crus-galli); conditions: amount of applied herbicide 320 g/ha
# Method in brief: (§3)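 Plants were sown in alluvial soil held under 0.1–0.5 cm standing water and grown 14 days in a greenhouse at 25–30 °C. An emulsifiable formulation, water-diluted to the set dose, was then sprayed onto the foliage, and effects were scored three weeks later using previously defined criteria.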
# [6] = test system: green foxtail; assay: Test Example 5: herbicidal effect by foliage application, plastic box (Table 20, symbol G); type: in vivo, green foxtail (Setaria viridis); conditions: foliage application, AAH 320 g/ha, evaluated three weeks after application
# Method in brief: as §2
# [7] = test system: blackgrass; assay: Test Example 5: herbicidal effect by foliage application, plastic box (Table 20, symbol J); type: in vivo, blackgrass (Alopecurus myosuroides); conditions: foliage application, AAH 320 g/ha, evaluated three weeks after application
# Method in brief: as §2
# [8] = test system: velvetleaf; assay: Test Example 5: herbicidal effect by foliage application, plastic box (Table 20, symbol M); type: in vivo, velvetleaf (Abutilon theophrasti); conditions: foliage application, AAH 320 g/ha, evaluated three weeks after application
# Method in brief: as §2
# [9] = test system: green foxtail; assay: Test Example 4: herbicidal effect by soil treatment (Table 19, symbol G); type: in vivo, green foxtail (Setaria viridis); conditions: amount of applied herbicide 320 g/ha
# Method in brief: as §1
# [10] = test system: lambsquarters; assay: Test Example 5: herbicidal effect by foliage application, plastic box (Table 20, symbol O); type: in vivo, lambsquarters (Chenopodium album); conditions: foliage application, AAH 320 g/ha, evaluated three weeks after application
# Method in brief: as §2
# [11] = test system: oval-leafed pondweed; assay: Test Example 1: herbicidal activity, application before weed generation under submerged conditions (Table 16, symbol C); type: in vivo, oval-leafed pondweed (Monochoria vaginalis); conditions: 320 g/ha applied herbicide
# Method in brief: (§4)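 Submerged Wagner pots (alluvial soil, 4 cm water) sown with weed seeds and planted with 2.5-leaf rice seedlings; emulsifiable concentrate diluted in water applied to water surface on sowing day. Held in greenhouse at 25-30 °C; injury scored 0-5 by herbicidal rate after three weeks.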
# [12] = test system: southern crabgrass; assay: Test Example 4: herbicidal effect by soil treatment (Table 19, symbol F); type: in vivo, southern crabgrass (Digitaria ciliaris); conditions: amount of applied herbicide 320 g/ha
# Method in brief: as §1
# [13] = test system: velvetleaf; assay: Test Example 4: herbicidal effect by soil treatment (Table 19, symbol M); type: in vivo, velvetleaf (Abutilon theophrasti); conditions: amount of applied herbicide 320 g/ha
# Method in brief: as §1
# [14] = test system: barnyard grass; assay: Test Example 5: herbicidal effect by foliage application, plastic box (Table 20, symbol H); type: in vivo, barnyard grass (Echinochloa crus-galli); conditions: foliage application, AAH 320 g/ha, evaluated three weeks after application
# Method in brief: as §2
# [15] = test system: windgrass; assay: Test Example 4: herbicidal effect by soil treatment (Table 19, symbol L); type: in vivo, windgrass (Apera spica-venti); conditions: amount of applied herbicide 320 g/ha
# Method in brief: as §1
# [16] = test system: redroot pigweed; assay: Test Example 4: herbicidal effect by soil treatment (Table 19, symbol N); type: in vivo, redroot pigweed (Amaranthus retroflexus); conditions: amount of applied herbicide 320 g/ha
# Method in brief: as §1
# [17] = test system: false cleavers; assay: Test Example 4: herbicidal effect by soil treatment (Table 19, symbol Q); type: in vivo, false cleavers (Galium spurium); conditions: amount of applied herbicide 320 g/ha
# Method in brief: as §1
# [18] = test system: Italian ryegrass; assay: Test Example 5: herbicidal effect by foliage application, plastic box (Table 20, symbol K); type: in vivo, Italian ryegrass (Lolium multiflorum); conditions: foliage application, AAH 320 g/ha, evaluated three weeks after application
# Method in brief: as §2
# [19] = test system: persian speedwell; assay: Test Example 5: herbicidal effect by foliage application, plastic box (Table 20, symbol R); type: in vivo, Persian speedwell (Veronica persica); conditions: foliage application, AAH 320 g/ha, evaluated three weeks after application
# Method in brief: as §2
# [20] = test system: rice flat sedge; assay: Test Example 3: herbicidal effect by foliage application, Wagner pot (Table 18, symbol E); type: in vivo, rice flat sedge (Cyperus iria); conditions: amount of applied herbicide 320 g/ha
# Method in brief: as §3
# [21] = test system: barnyard grass; assay: Test Example 4: herbicidal effect by soil treatment (Table 19, symbol H); type: in vivo, barnyard grass (Echinochloa crus-galli); conditions: amount of applied herbicide 320 g/ha
# Method in brief: as §1
# [22] = test system: windgrass; assay: Test Example 5: herbicidal effect by foliage application, plastic box (Table 20, symbol L); type: in vivo, windgrass (Apera spica-venti); conditions: foliage application, AAH 320 g/ha, evaluated three weeks after application
# Method in brief: as §2
# [23] = test system: wild oat; assay: Test Example 4: herbicidal effect by soil treatment (Table 19, symbol I); type: in vivo, wild oat (Avena fatua); conditions: amount of applied herbicide 320 g/ha
# Method in brief: as §1
# [24] = test system: late watergrass; assay: Test Example 1: herbicidal activity, application before weed generation under submerged conditions (Table 16, symbol A); type: in vivo, late watergrass (Echinochloa oryzicola); conditions: 320 g/ha applied herbicide
# Method in brief: as §4
# [25] = test system: chickweed; assay: Test Example 5: herbicidal effect by foliage application, plastic box (Table 20, symbol P); type: in vivo, common chickweed (Stellaria media); conditions: foliage application, AAH 320 g/ha, evaluated three weeks after application
# Method in brief: as §2
# [26] = test system: Japanese bulrush; assay: Test Example 1: herbicidal activity, application before weed generation under submerged conditions (Table 16, symbol B); type: in vivo, Japanese bulrush (Schoenoplectus juncoides); conditions: 320 g/ha applied herbicide
# Method in brief: as §4
# [27] = test system: Chinese sprangletop; assay: Test Example 3: herbicidal effect by foliage application, Wagner pot (Table 18, symbol D); type: in vivo, chinese sprangletop (Leptochloa chinensis); conditions: amount of applied herbicide 320 g/ha
# Method in brief: as §3
# [28] = test system: Italian ryegrass; assay: Test Example 4: herbicidal effect by soil treatment (Table 19, symbol K); type: in vivo, Italian ryegrass (Lolium multiflorum); conditions: amount of applied herbicide 320 g/ha
# Method in brief: as §1
# [29] = test system: wild oat; assay: Test Example 5: herbicidal effect by foliage application, plastic box (Table 20, symbol I); type: in vivo, wild oat (Avena fatua); conditions: foliage application, AAH 320 g/ha, evaluated three weeks after application
# Method in brief: as §2
# [30] = test system: blackgrass; assay: Test Example 4: herbicidal effect by soil treatment (Table 19, symbol J); type: in vivo, blackgrass (Alopecurus myosuroides); conditions: amount of applied herbicide 320 g/ha
# Method in brief: as §1
SMILES,herbicidal effect on R: persian speedwell [1],"F: southern crabgrass, herbicidal effect (criteria 0-5) [2]","N: redroot pigweed, herbicidal effect (criteria 0-5) [3]",herbicidal effect on O: lambsquarters [4],herbicidal effect on H: barnyard grass [5],"G: green foxtail, herbicidal effect (criteria 0-5) [6]","J: blackgrass, herbicidal effect (criteria 0-5) [7]","M: velvetleaf, herbicidal effect (criteria 0-5) [8]",herbicidal effect on G: green foxtail [9],"O: lambsquarters, herbicidal effect (criteria 0-5) [10]",Herbicidal effect on C: oval-leafed pondweed (grade 0-5) [11],herbicidal effect on F: southern crabgrass [12],herbicidal effect on M: velvetleaf [13],"H: barnyard grass, herbicidal effect (criteria 0-5) [14]",herbicidal effect on L: windgrass [15],herbicidal effect on N: redroot pigweed [16],herbicidal effect on Q: false cleavers [17],"K: Italian ryegrass, herbicidal effect (criteria 0-5) [18]","R: persian speedwell, herbicidal effect (criteria 0-5) [19]",herbicidal effect on E: rice flat sedge [20],also measured
Cc1nn(C)c(=O)c(-c2c(-c3ccc(SCC(F)F)cc3)sc3ccc(F)cc23)c1O [2-260],3 (Herbicidal rate of 40% or more and less than 70%),5 (Herbicidal rate of 90% or more (almost completely withered)),5 (Herbicidal rate of 90% or more (almost completely withered)),5 (Herbicidal rate of 90% or more (almost completely withered)),5 (Herbicidal rate of 90% or more (almost completely withered)),5 (Herbicidal rate of 90% or more (almost completely withered)),4 (Herbicidal rate of 70% or more and less than 90%),4 (Herbicidal rate of 70% or more and less than 90%),5 (Herbicidal rate of 90% or more (almost completely withered)),5 (Herbicidal rate of 90% or more (almost completely withered)),0 (Herbicidal rate of 5% or less (almost no effect)),4 (Herbicidal rate of 70% or more and less than 90%),3 (Herbicidal rate of 40% or more and less than 70%),5 (Herbicidal rate of 90% or more (almost completely withered)),0 (Herbicidal rate of 5% or less (almost no effect)),5 (Herbicidal rate of 90% or more (almost completely withered)),0 (Herbicidal rate of 5% or less (almost no effect)),5 (Herbicidal rate of 90% or more (almost completely withered)),5 (Herbicidal rate of 90% or more (almost completely withered)),3 (Herbicidal rate of 40% or more and less than 70%),"herbicidal effect on H: barnyard grass [21]: 3 (Herbicidal rate of 40% or more and less than 70%); L: windgrass, herbicidal effect (criteria 0-5) [22]: 5 (Herbicidal rate of 90% or more (almost completely withered)); herbicidal effect on I: wild oat [23]: 0 (Herbicidal rate of 5% or less (almost no effect)); Herbicidal effect on A: late watergrass (grade 0-5) [24]: 3 (Herbicidal rate of 40% or more and less than 70%); P: chickweed, herbicidal effect (criteria 0-5) [25]: 5 (Herbicidal rate of 90% or more (almost completely withered)); Herbicidal effect on B: Japanese bulrush (grade 0-5) [26]: 0 (Herbicidal rate of 5% or less (almost no effect)); herbicidal effect on D: Chinese sprangletop [27]: 3 (Herbicidal rate of 40% or more and less than 70%); herbicidal effect on K: Italian ryegrass [28]: 0 (Herbicidal rate of 5% or less (almost no effect)); I: wild oat, herbicidal effect (criteria 0-5) [29]: 5 (Herbicidal rate of 90% or more (almost completely withered))"
Cc1nn(C)c(=O)c(-c2c(-c3cccc(OCc4ccccc4)c3)sc3ccc(F)cc23)c1O [2-267],4 (Herbicidal rate of 70% or more and less than 90%),4 (Herbicidal rate of 70% or more and less than 90%),4 (Herbicidal rate of 70% or more and less than 90%),0 (Herbicidal rate of 5% or less (almost no effect)),5 (Herbicidal rate of 90% or more (almost completely withered)),5 (Herbicidal rate of 90% or more (almost completely withered)),2 (Herbicidal rate of 20% or more and less than 40%),3 (Herbicidal rate of 40% or more and less than 70%),3 (Herbicidal rate of 40% or more and less than 70%),4 (Herbicidal rate of 70% or more and less than 90%),0 (Herbicidal rate of 5% or less (almost no effect)),5 (Herbicidal rate of 90% or more (almost completely withered)),0 (Herbicidal rate of 5% or less (almost no effect)),5 (Herbicidal rate of 90% or more (almost completely withered)),0 (Herbicidal rate of 5% or less (almost no effect)),2 (Herbicidal rate of 20% or more and less than 40%),0 (Herbicidal rate of 5% or less (almost no effect)),3 (Herbicidal rate of 40% or more and less than 70%),5 (Herbicidal rate of 90% or more (almost completely withered)),3 (Herbicidal rate of 40% or more and less than 70%),"herbicidal effect on J: blackgrass [30]: 0 (Herbicidal rate of 5% or less (almost no effect)); herbicidal effect on H: barnyard grass [21]: 5 (Herbicidal rate of 90% or more (almost completely withered)); L: windgrass, herbicidal effect (criteria 0-5) [22]: 0 (Herbicidal rate of 5% or less (almost no effect)); herbicidal effect on I: wild oat [23]: 0 (Herbicidal rate of 5% or less (almost no effect)); Herbicidal effect on A: late watergrass (grade 0-5) [24]: 2 (Herbicidal rate of 20% or more and less than 40%); P: chickweed, herbicidal effect (criteria 0-5) [25]: 5 (Herbicidal rate of 90% or more (almost completely withered)); Herbicidal effect on B: Japanese bulrush (grade 0-5) [26]: 0 (Herbicidal rate of 5% or less (almost no effect)); herbicidal effect on D: Chinese sprangletop [27]: 5 (Herbicidal rate of 90% or more (almost completely withered)); herbicidal effect on K: Italian ryegrass [28]: 0 (Herbicidal rate of 5% or less (almost no effect)); I: wild oat, herbicidal effect (criteria 0-5) [29]: 0 (Herbicidal rate of 5% or less (almost no effect))"
